Measurements from patent US7972800B2, “Screening method for binding property or signal transduction alterations” (Takeda Pharmaceutical Company Limited, priority 2003, dated 2011).

Columns and labels:
[1] = tested on: CHO cells where the receptor was not expressed or GPCR other than GPR39 was expressed; assay type: cell-based; conditions: FLIPR; control cells
[2] = tested on: GPR39-expressed UM-UC-3 cells; test: IL-8 secretion from GPR39-expressed UM-UC-3 cells, quantified by EIA; assay type: cell-based, human; conditions: 1 mM copper chloride, 12 hours incubation, culture supernatant
Procedure: Using GPR39-expressed UM-UC-3 cells, the effects of adding metal ions as the agonist for GPR39 were examined.
After washing with PBS, the cells were scraped off using trypsin and centrifuged for recovery. […] Next, the suspension was dispensed in a 6-well plate (Falcon) at 5 ml each per well, followed by incubation overnight in a CO2 incubator.
Then, 5 ml each was added to each well, followed by incubation at 37° C. in a CO2 incubator for […]. […] After the culture supernatant was recovered, IL-8 contained in the samples was quantified by EIA (Amersham).

[3] = tested on: bladder (micturition) of conscious rats; test: Cystometry in conscious rats with intravesical infusion; assay type: in vivo, rat; conditions: female SD rats, 1 mM CuCl2 in saline infused into the bladder
Procedure: Female SD rats of 9-10 weeks old were anaesthetized by intramuscular injection with 0.1 ml/100 g of a solution obtained by mixing ketamine (50 mg/mL) and xylazine (20 mg/mL) in 5:1. The bladder was then exposed via a midline incision and a hole was made with a 20-G needle to insert a polyethylene tube (PE-50), which tube was sutured to the bladder with cotton thread. The polyethylene tube cannulated into the bladder was cut at a length of about 1 cm, which was connected to a silicon tube (No. 00) and exposed to the dorsum through the skin. The animals were housed in individual cages until they were used for the experiments.
One day after the surgery, the animal was anesthetized with halothane and placed in Ballman cages under restricted conditions. After a three-way cock was connected to the tube cannulated into the bladder, a saline infusion tube was connected to a cystometry tube (resistance to infusion). An electronic scale was placed under the Ballman cages and the micturition volume was measured at the same time. When the anesthetic completely worn off, the infusion of saline into the bladder commenced and the bladder pressure and micturition volume were recorded on a personal computer via an A-D converter (MP-100, BIOPAC Systems) and analyzed using a dedicated software (AcqKnowledge, BIOPAC Systems).
Saline was infused into the bladder at the rate of 6 ml/hr and the infusion was continued for 1 or 2 hours until stable micturition was recorded. In order to enhance the permeability of a drug into the bladder, protamine sulfate (10 mg/mL in PBS) was infused into the bladder for an hour (Chuang Y, et. al., 2003, Urology, 63, 664-670). […] Then, saline was reinfused into the bladder and micturition was recorded at least 2 hours until protamine was completely washed off. […] Mean micturition intervals during from about 30 minutes to about 60 minutes after starting the infusion of CuCl2 were calculated to find a ratio to mean micturition intervals for about 30 minutes before the infusion of CuCl2 (% of the pre-value).

[4] = biological target: TGR7 (Homo sapiens, UniProt Q8TDS7); conditions: Cytosensor, TGR7-expressed cells (FIG. 8)
Chain of TGR7 (Q8TDS7 whole entry): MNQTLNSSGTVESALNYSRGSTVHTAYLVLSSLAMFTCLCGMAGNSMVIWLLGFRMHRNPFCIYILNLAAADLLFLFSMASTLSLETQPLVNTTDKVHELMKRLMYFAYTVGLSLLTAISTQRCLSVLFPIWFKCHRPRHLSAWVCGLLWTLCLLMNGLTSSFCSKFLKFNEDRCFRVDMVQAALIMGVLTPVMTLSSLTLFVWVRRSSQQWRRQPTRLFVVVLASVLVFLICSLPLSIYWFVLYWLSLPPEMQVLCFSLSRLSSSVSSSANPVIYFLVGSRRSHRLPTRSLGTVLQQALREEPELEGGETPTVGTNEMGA
Procedure: Activation of the intracellular signal transduction system by ligands using a Cytosensor was determined in terms of the pH changes by metabolism of cells as an indicator.
The procedures were as follows. On the previous day, the human GPR39-expressing CHO cell line was cultured in a culture flask to reach a confluent state. After washing with PBS (Invitrogen Corp.), the cells were scraped off using trypsin (Invitrogen Corp.) and centrifuged for recovery. The cells were then suspended in medium and the suspension was adjusted to 3×10^5 cells/ml. The capsule of Cytosensor capsule kit (Molecular Device) was placed on a 12-well plate (Costar) and 1 ml of the cell suspension was charged therein. After covering with the lid, the cells were incubated at 37° C. in an incubator until next day. On the day when the assay was conducted, Cytosensor was activated as instructed by the protocol. Then, RPMI1640 medium (pH 7.4) (Invitrogen Corp.) for Cytosensor was prepared and equilibrated. The spacer was then placed in the capsule where the cells prepared on the previous day were seeded, and the capsule was set on Cytosensor. After equilibration with the medium, a sample was added to the cells by switching the flow path and pH changes were determined.

[5] = tested on: HT-1197; conditions: FLIPR
Procedure: (§1) On the day when the assay was conducted, various test samples were added to the cells and the changes of intracellular calcium levels in this case were determined by FLIPR (Molecular Device). In order to determine the changes in intracellular calcium levels on FLIPR, the cells were pre-treated by the following procedures. First, for the purpose of adding a fluorescent dye Fluo-3AM (DOJIN) to the cells or washing the cells immediately before the FLIPR assay, an assay buffer was prepared. A solution was prepared by adding 20 ml of 1M HEPES (pH 7.4) (DOJIN) to 1000 ml of HBSS (Invitrogen Corp.) (hereinafter HBSS/HEPES solution), to which solution was added 10 ml of a solution mixture obtained by dissolving 710 mg of Probenecid (Sigma) in 5 ml of 1N NaOH and further adding 5 ml of HBSS/HEPES solution thereto. The resulting solution was used as the assay buffer. Next, 50 μg of Fluo-3AM was dissolved in 21 μl of DMSO (DOJIN) and an equal volume of 20% Pluronic acid (Molecular Probes) was added to and mixed with the solution. The mixture was then added to 10.6 ml of the assay buffer supplemented with 105 μl of fetal calf serum to prepare a fluorescent dye solution. The medium for the CHO cells where human GPR39 was stably expressed was removed. […] Following the pre-treatment above, the changes in intracellular calcium levels after the addition of each test sample were determined by FLIPR. […]

[6] = tested on: UM-UC-3; conditions: FLIPR
Procedure: as §1

SMILES	intracellular calcium response in CHO cells without the receptor or with GPCR other than GPR39 [1]	amount of IL-8 accumulated relative to absence of copper chloride [2]	basal pressure (bladder) [3]	ratio of mean micturition intervals (% of the pre-value) ([3]; about 30-60 min after start vs about 30 min before, pre-value made 100%, n=4)	cell response (pH change) in other receptor TGR7 cells [4]	reaction (change in intracellular calcium levels) in HT-1197 [5]	reaction (change in intracellular calcium levels) in UM-UC-3 [6]
[Cl][Cu][Cl] [copper chloride]	no such response was observed	approximately twice	not affected	42.2±6.1%			
[Cl][Ni][Cl] [nickel chloride]	no such response was observed				any response was not detected	a reaction with nickel was detected	a reaction with nickel was detected
